Laboratory results from ChEMBL document CHEMBL1201862, “PubChem BioAssay data set” (2004).
Several values for one entry are separate records, joined by “and”; a condition that tells them apart may be missing. Equal entries are not always repeated. Activity calls are given as the source filed them.

How the values were obtained:
[1] = luciferase reporter signal suppression in cells – H4 neuroglioma cells, luminescence, dose response (AID 1990); assay type: functional, cell-based
[2] = Luminescence-based dose response cell-based high throughput screening assay for cytotoxic compounds using the IEC-6 intestinal epithelial cell line. [Related pubchem assays: 1858 (Summary AID.), 1825 (Counterscreen.), 1907 (Confirmation screen.)]; assay type: functional
[3] = tested on: Streptococcus; test: GAS UMAA2166 growth inhibition – luminescence, BacTiterGlo, counter-screen for streptokinase expression inhibitor project, dose response (AID 1915); assay type: functional, organism-based;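 note: potency for reduction of bacterial viability or growth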
[4] = molecular target: T1, Caspase-3 (Homo sapiens, UniProt P42574); assay type: functional;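 note: Dose-response selectivity test against caspase-3 for candidate inhibitors of sentrin-specific proteases (SENPs)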
T1 sequence (P42574 whole entry): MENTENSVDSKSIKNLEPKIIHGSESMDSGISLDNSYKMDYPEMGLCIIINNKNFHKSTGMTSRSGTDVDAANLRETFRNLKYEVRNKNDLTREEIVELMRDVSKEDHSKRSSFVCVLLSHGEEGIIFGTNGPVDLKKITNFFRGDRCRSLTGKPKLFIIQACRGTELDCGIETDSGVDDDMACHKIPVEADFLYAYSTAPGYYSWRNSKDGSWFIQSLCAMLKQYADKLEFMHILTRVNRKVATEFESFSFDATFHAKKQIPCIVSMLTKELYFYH

[5] = molecular target: Ras and Rab interactor 1/Tyrosine-protein kinase ABL1 (Homo sapiens, UniProt P00519+Q13671); assay type: functional;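 note: biochemical TR-FRET dose-response test measuring inhibition of binding between Rin1 and Abl proteins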
Sequence of Ras and Rab interactor 1/Tyrosine-protein kinase ABL1 (P00519 whole entry): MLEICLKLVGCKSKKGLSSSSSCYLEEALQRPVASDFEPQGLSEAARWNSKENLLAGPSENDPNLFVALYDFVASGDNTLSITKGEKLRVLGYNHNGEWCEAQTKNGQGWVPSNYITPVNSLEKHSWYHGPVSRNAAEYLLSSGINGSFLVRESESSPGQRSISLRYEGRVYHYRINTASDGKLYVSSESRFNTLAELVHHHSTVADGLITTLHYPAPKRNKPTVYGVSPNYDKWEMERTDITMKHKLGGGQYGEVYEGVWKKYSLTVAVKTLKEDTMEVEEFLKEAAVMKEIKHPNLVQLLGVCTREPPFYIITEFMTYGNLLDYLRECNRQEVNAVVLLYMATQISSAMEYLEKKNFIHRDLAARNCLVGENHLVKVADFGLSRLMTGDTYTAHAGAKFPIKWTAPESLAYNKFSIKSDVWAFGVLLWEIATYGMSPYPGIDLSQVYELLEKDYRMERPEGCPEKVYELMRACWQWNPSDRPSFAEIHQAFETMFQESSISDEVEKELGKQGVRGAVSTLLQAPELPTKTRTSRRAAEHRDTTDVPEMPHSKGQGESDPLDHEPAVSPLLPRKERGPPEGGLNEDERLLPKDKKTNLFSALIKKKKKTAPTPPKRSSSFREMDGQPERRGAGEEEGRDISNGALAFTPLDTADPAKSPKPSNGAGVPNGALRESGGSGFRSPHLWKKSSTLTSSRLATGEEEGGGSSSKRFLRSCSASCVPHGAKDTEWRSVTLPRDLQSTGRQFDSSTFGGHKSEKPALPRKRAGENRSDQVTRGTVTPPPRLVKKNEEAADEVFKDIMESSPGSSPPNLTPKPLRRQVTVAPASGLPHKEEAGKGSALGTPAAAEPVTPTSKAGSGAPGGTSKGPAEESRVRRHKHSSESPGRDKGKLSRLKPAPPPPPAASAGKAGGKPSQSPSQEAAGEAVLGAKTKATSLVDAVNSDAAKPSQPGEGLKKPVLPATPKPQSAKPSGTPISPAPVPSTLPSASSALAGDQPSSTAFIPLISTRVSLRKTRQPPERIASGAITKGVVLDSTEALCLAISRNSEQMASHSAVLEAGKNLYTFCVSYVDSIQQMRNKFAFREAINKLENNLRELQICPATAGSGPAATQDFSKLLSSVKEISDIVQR
Sequence of Ras and Rab interactor 1/Tyrosine-protein kinase ABL1 (Q13671 whole entry): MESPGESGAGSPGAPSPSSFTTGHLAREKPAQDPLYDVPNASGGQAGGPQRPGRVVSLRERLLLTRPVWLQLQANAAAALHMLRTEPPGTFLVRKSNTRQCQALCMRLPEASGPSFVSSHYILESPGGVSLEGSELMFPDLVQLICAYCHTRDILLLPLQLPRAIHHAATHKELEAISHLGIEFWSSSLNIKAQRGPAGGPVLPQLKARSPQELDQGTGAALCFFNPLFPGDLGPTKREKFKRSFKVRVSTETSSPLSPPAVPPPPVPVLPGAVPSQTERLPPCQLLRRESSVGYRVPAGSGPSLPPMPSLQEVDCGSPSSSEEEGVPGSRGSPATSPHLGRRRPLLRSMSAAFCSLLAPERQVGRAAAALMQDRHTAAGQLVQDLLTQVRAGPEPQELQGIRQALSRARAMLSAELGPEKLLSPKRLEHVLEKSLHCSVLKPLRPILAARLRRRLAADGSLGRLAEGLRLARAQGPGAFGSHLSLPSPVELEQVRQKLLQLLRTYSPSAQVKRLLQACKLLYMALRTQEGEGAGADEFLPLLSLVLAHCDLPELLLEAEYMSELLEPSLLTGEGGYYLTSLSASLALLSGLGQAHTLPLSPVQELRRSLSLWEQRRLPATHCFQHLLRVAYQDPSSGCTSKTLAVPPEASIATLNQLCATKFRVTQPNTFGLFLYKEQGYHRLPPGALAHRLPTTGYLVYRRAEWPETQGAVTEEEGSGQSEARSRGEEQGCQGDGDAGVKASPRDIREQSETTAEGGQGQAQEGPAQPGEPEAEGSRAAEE

[6] = molecular target: Peroxisome proliferator-activated receptor gamma/Nuclear receptor corepressor 2 (Homo sapiens, UniProt P37231+Q9Y618); assay type: functional
[7] = molecular target: Heat shock protein HSP 90-alpha (Homo sapiens, UniProt P07900); test: Luminescence-based dose response biochemical high throughput screening assay for inhibitors of the Heat Shock Protein 90 (HSP90). [Related pubchem assays: 1831 (Summary AID.), 1846 (Confirmation screen.), 1789 (Primary screen.)]
[8] = molecular target: 1-phosphatidylinositol 4,5-bisphosphate phosphodiesterase gamma-1 (Homo sapiens, UniProt P19174); test: Counterscreen for inhibitors of phospholipase C isozymes (PLC-B3): Fluorescence-based biochemical high throughput dose response assay to identify inhibitors of phospholipase C isozymes (PLC-gamma1).
Sequence of 1-phosphatidylinositol 4,5-bisphosphate phosphodiesterase gamma-1 (P19174 whole entry): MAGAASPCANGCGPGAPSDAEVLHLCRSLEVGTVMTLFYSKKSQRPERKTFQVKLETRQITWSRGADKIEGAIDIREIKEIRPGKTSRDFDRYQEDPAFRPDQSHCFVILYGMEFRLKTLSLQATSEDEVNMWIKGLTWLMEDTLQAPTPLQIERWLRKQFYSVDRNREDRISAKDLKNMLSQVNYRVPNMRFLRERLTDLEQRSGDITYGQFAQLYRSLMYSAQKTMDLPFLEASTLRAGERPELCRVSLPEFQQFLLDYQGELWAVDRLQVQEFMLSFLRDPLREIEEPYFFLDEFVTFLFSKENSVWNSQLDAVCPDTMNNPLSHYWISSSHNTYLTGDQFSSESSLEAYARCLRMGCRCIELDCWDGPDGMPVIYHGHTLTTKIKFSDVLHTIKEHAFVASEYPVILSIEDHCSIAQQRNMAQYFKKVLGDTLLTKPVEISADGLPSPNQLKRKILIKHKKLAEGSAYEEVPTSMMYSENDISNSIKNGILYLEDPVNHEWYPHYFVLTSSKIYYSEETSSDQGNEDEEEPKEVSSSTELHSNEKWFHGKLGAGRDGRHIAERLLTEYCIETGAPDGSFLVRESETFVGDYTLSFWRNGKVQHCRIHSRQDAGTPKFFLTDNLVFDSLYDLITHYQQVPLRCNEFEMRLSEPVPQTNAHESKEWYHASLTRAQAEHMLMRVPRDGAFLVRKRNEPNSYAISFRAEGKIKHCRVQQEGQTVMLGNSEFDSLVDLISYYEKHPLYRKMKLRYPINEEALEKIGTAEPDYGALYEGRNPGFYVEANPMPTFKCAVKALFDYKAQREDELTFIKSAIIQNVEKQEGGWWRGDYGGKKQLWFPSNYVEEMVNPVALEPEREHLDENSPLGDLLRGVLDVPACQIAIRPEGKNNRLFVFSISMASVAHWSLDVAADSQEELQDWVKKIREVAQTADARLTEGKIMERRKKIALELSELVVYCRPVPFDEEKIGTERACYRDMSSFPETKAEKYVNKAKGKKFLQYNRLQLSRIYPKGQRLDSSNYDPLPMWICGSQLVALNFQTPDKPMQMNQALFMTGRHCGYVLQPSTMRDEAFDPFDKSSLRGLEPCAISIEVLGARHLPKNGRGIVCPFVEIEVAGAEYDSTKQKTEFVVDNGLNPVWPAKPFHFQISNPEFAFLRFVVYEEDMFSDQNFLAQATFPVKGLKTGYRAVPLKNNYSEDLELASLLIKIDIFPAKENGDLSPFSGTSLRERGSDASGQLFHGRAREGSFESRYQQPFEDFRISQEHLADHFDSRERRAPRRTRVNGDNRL

[9] = molecular target: 1-phosphatidylinositol 4,5-bisphosphate phosphodiesterase beta-3 (Homo sapiens, UniProt Q01970); test: Fluorescence-based biochemical high throughput dose response assay to identify inhibitors of phospholipase C isozymes (PLC-B3).
[10] = molecular target: Guanyl-specific ribonuclease T1 (Aspergillus oryzae (strain ATCC 42149 / RIB 40), UniProt P00651); test: inhibition of ribonuclease T1 activity – biochemical, fluorescence polarization, 1536-well, counter-screen for TPT1 inhibitor project, dose response (AID 2167)
Sequence of Guanyl-specific ribonuclease T1 (P00651 whole entry): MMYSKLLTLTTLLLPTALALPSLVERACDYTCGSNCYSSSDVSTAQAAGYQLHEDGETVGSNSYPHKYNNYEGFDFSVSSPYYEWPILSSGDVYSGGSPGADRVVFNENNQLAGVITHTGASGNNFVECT

[11] = molecular target: Large T antigen (Simian virus 40, UniProt P03070); assay type: functional, Betapolyomavirus macacae;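 note: Confirmatory-stage PubChem screen for compounds that inhibit SV40 T antigen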
[12] = molecular target: Intestinal-type alkaline phosphatase (Homo sapiens, UniProt P09923); test: activation of human intestinal alkaline phosphatase – biochemical, dose response (AID 488873); assay type: functional
Sequence of Intestinal-type alkaline phosphatase (Homo sapiens, UniProt P09923) (P09923 whole entry): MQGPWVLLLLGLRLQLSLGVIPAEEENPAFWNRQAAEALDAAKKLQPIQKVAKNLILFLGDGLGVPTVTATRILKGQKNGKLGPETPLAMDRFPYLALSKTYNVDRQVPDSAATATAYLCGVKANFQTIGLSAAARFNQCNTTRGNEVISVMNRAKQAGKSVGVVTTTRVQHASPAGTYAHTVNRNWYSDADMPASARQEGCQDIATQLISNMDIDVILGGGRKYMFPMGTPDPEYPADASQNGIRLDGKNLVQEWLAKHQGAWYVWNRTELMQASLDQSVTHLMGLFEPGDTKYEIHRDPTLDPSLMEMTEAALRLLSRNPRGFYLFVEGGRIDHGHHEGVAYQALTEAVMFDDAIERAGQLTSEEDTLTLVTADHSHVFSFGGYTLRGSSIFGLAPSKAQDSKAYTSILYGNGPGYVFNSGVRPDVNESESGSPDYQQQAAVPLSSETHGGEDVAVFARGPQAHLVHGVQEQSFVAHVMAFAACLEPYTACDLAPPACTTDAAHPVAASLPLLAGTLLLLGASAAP

[13] = molecular target: Intestinal-type alkaline phosphatase (Mus musculus, UniProt P24822); test: mouse intestinal alkaline phosphatase activators, dose response, biochemical, luminescence, uHTS hits (AID 488783); assay type: functional
Sequence of Intestinal-type alkaline phosphatase (Mus musculus, UniProt P24822) (P24822 whole entry): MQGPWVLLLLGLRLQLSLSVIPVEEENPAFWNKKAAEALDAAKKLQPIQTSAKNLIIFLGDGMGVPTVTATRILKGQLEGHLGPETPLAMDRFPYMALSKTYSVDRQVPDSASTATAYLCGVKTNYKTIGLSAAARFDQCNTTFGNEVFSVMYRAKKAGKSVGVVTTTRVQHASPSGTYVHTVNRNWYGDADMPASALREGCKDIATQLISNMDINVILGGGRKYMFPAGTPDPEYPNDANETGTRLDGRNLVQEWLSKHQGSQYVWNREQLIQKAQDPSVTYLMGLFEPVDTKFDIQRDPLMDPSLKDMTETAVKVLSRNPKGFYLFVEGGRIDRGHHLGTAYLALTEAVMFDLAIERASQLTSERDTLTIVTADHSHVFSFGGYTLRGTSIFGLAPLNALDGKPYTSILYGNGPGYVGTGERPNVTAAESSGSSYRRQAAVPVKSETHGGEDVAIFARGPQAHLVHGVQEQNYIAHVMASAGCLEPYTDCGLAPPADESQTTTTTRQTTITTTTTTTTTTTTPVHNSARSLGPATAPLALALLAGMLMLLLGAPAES

[14] = molecular target: Dual specificity protein phosphatase 3 (Homo sapiens, UniProt P51452); test: SAR VHR1 Fluorescent Assay for In Vitro dose response studies Set 2. [Related pubchem assays (depositor defined):AID1654, AID1661, AID1878]; assay type: functional
Sequence of Dual specificity protein phosphatase 3 (P51452 whole entry): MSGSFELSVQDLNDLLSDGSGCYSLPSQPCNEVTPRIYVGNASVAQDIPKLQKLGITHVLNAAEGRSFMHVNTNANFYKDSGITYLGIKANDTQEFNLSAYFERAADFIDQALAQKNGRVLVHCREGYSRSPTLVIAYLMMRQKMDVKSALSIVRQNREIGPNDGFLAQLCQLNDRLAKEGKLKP

[15] = molecular target: T2, Dual specificity protein phosphatase 6 (Rattus norvegicus, UniProt Q64346); assay type: functional;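 note: confirmatory in vitro dose-response testing of MKP-3 inhibition; recombinant His-tagged MKP-3 made in E. coli BL21 with OMFP substrate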
T2 sequence (Q64346 whole entry): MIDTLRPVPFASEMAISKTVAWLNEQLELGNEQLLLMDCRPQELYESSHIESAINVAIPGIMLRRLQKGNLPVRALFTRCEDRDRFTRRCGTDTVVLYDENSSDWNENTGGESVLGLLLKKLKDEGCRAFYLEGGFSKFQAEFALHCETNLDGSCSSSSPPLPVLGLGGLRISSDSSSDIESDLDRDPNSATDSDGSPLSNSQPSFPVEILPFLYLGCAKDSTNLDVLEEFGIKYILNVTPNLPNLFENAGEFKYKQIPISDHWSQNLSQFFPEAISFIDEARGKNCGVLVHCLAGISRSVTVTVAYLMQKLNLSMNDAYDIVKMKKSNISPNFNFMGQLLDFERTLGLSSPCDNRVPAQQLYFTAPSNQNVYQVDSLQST

[16] = molecular target: Small ubiquitin-related modifier 2 (Homo sapiens, UniProt P61956); test: disruption of SUMO2 interaction with SIM peptide – biochemical, fluorescence polarization, uHTS hits, selectivity assay for SUMO1 interaction inhibitor project, dose response (AID 624385); assay type: functional; conditions: read-out: IC50_Mean
Sequence of Small ubiquitin-related modifier 2 (P61956 whole entry): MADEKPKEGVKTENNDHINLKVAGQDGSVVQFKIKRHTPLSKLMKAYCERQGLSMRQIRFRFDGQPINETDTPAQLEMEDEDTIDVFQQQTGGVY

[17] = molecular target: T3, Small ubiquitin-related modifier 1 (Homo sapiens, UniProt P63165); test: SUMO1 protein interaction blockers, potency – biochemical, fluorescence polarization, uHTS hits, dose response (AID 624382); assay type: functional; conditions: read-out: IC50_Mean
T3 sequence (P63165 whole entry): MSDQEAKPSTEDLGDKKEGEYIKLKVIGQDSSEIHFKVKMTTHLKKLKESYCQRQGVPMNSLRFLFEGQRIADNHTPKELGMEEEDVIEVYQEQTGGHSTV

[18] = molecular target: T3, Small ubiquitin-related modifier 1; test: SUMO1 protein-protein binding blockers, potency – biochemical, FRET, dose response (AID 624383); assay type: functional; conditions: read-out: IC50_Mean

## O=C1c2ccccc2C(=O)c2[nH]c(O)nc21
[1]
  EC50: 5.93 µM (active)
[2]
  IC50: 1.81 µM (active)
[3]
  EC50: > 150 µM (not active)

## CCOC(=O)C1=C(C)OC2(O)c3ccccc3C(=O)C12O (stereo not drawn)
[4]
  IC50: > 100 µM (inactive)
[5]
  IC50: 11.1 µM (inactive)

## COC(=O)c1cc(C)nc2c1C(=O)C(=O)C=C2N1CCOCC1
[6]
  IC50: > 39.8 µM (not active)
[7]
  IC50: 3.21 µM (active)
[8]
  IC50: 13.7 µM (inactive)
[9]
  IC50: > 123 µM (inactive)

## NS(=O)(=O)c1cc(C(=O)NC2CCSc3ccccc32)ccc1Cl (stereo not drawn)
[10]
  IC50: > 55.7 µM (not active)
[11]
  IC50: 62.1 µM (active)
[12]
  EC50: 49.4 µM (active)
[13]
  EC50: 5.57 µM (active)
[14]
  IC50: > 100 µM (inactive) and 82.8 nM (active)
[15]
  IC50: 2.96 µM (active) and > 100 µM (inactive)
[16]
  IC50: 6.65 µM (active)
[17]
  IC50: 4.11 µM (active)
[18]
  IC50: 2.29 µM (active)
